Measured values taken from patent US12714700B2 (priority 2017, dated 2026).

Test system: ob/ob mice
Conditions: cohort 2 (HFD conditioning, then 50 mg/kg), relative to untreated controls

How did the NASH fibrosis scores turn out when `N#Cc1ccc2nnc(C(=O)N3CCC(c4cccc(F)c4C(F)(F)F)CC3)n2c1` [Compound 2, 3-(4-(3-fluoro-2-(trifluoromethyl)phenyl)piperidine-1-carbonyl)-[1,2,4]triazolo[4,3-a]pyridine-6-carbonitrile] was run?
The NASH fibrosis scores was “reduction”.

And the “amount of bridging fibrosis” value?
Its value is “decrease”.
